Measurements reported in patent US7138527B2, “Indole derivatives useful for the treatment of diseases” (Pfizer Inc., priority 2002, dated 2006).

Biological target: T1, human β2 adrenergic receptor (Homo sapiens, UniProt P07550)
T1 construct: expressed in transfected cells; host or cells: CHO (Chinese Hamster Ovary) cells, CHOhβ2
Assay: Cell based cAMP assay in CHO cells recombinantly expressing the human β2 adrenergic receptor (cAMP-Flashplate)
Conditions: CHOhβ2 cells, 1 hour incubation
Procedure: According to another alternative, the agonist potency for the […] of the indole derivatives of the formula (1) may also be determined by the measure of the concentration of compound according to the present invention required to produce half maximal effect (EC50) for the β2 receptor.
10 mM/100% DMSO (dimethylsulfoxide) stock of compound is diluted to required top dose in 4% DMSO. This top dose is used to construct a 10-point semi-log dilution curve, all in 4% DMSO. […] Data was expressed as % Isoprenaline response.
Cells were seeded to give about 90% confluency for testing.
25 μl/well each dose of compound was transferred into a cAMP-Flashplate® (NEN, SMP004B), with 1% DMSO as basal controls and 100 nM Isoprenaline as max controls. This was diluted 1:2 by the addition of 25 μl/well PBS. […] Compounds were incubated with 50 μl/well cells for 1 hour. […] Dose-response data was expressed as % Isoprenaline activity and fitted using a four parameter sigmoid fit.

T1 sequence (P07550 whole entry): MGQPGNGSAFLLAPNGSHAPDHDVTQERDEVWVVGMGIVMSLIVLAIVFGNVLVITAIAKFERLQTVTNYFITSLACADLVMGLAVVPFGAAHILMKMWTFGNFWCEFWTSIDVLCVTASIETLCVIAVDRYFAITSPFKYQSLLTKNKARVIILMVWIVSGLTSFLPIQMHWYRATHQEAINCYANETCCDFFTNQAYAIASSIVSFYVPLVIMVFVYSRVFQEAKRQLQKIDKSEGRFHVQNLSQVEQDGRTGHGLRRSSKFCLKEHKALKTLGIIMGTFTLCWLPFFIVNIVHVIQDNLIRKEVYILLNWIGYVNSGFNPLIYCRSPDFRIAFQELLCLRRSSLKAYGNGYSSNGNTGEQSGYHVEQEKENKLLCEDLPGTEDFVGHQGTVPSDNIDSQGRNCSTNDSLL

Row | Structure (SMILES) | EC50 [nM]
1 | COc1ccccc1CNC(=O)c1cc2cc(C[C@@H](C)NC[C@H](O)c3ccc(O)c(CO)c3)ccc2[nH]1 [Example 1, 5-[(2R)-2-({(2R)-2-hydroxy-2-[4-hydroxy-3-(hydroxymethyl)phenyl]ethyl}amino)propyl]-N-(2-methoxybenzyl)-1H-indole-2-carboxamide] | 0.02
2 | C[C@H](Cc1ccc2[nH]c(C(=O)N(C)Cc3ccccc3)cc2c1)NC[C@H](O)c1ccc(O)c(CO)c1 [Example 22, 5-[(2R)-2-({(2R)-2-Hydroxy-2-(4-hydroxy-3-hydroxymethylphenyl)ethyl}amino)propyl}-N-benzyl-N-methyl-1H-indole-2-carboxamide] | 0.02
3 | C[C@H](Cc1ccc2[nH]c(C(=O)NCc3ccc(C(F)(F)F)cc3)cc2c1)NC[C@H](O)c1ccc(O)c(CO)c1 [Example 2, 5-[(2R)-2-({(2R)-2-hydroxy-2-[4-hydroxy-3-(hydroxymethyl)phenyl]ethyl}amino)propyl]-N-[4-(trifluoromethyl)benzyl]-1H-indole-2-carboxamide] | 0.8
4 | COc1cc(O)cc(OC)c1CNC(=O)c1cc2cc(C[C@@H](C)NC[C@H](O)c3ccc(O)c(CO)c3)ccc2[nH]1 [Example 9, 5-[(2R)-2-({(2R)-2-Hydroxy-2-(4-hydroxy-3-hydroxymethylphenyl)ethyl]amino)propyl]-N-(4-hydroxy-2,6-dimethoxybenzyl)-1H-indole-2-carboxamide] | 0.02
5 | COc1cccc(OC)c1CNC(=O)c1cc2cc(C[C@@H](C)NC[C@H](O)c3ccc(O)c(CO)c3)ccc2[nH]1 [Example 3, N-(2,6-dimethoxybenzyl)-5-[(2R)-2-({(2R)-2-hydroxy-2-[4-hydroxy-3-(hydroxymethyl)phenyl]ethyl}amino)propyl]-1H-indole-2-carboxamide] | 0.05
6 | COc1cccc(CNC(=O)c2cc3cc(C[C@@H](C)NC[C@H](O)c4ccc(O)c(CO)c4)ccc3[nH]2)c1 [Example 4, 5-[(2R)-2-({(2R)-2-hydroxy-2-[4-hydroxy-3-(hydroxymethyl)phenyl]ethyl}amino)propyl]-N-(3-methoxybenzyl)-1H-indole-2-carboxamide] | 0.12
7 | CC[C@H](Cc1ccc2[nH]c(C(=O)NCc3ccccc3)cc2c1)NC[C@H](O)c1ccc(O)c(CO)c1 [Example 36, 5-[(2R)-2-({(2R)-2-Hydroxy-2-(4-hydroxy-3-hydroxymethylphenyl)ethyl]amino)butyl}-N-benzyl-1H-indole-2-carboxamide] | 0.38
8 | CCn1c(C(=O)NCc2ccc(Cl)cc2)cc2cc(C[C@@H](C)NC[C@H](O)c3ccc(O)c(CO)c3)ccc21 [Example 29, 1-Ethyl-5-[(2R)-2-({(2R)-2-hydroxy-2-(4-hydroxy-3-hydroxymethylphenyl)ethyl}amino)propyl}-N-(4-chlorobenzyl)-1H-indole-2-carboxamide] | 3.99
